Measurements published in patent publication US11535597B2, “Photoreactive ligands and uses thereof” (The Scripps Research Institute, priority 2017, dated 2022).

Assays:
PTGR2 [1] = target: T1, PTGR2 (Homo sapiens, UniProt Q8N8N7); assay: In vitro LCMS-based activity assay for PTGR2 (15-keto-PGE2 reductase activity); type: biochemical
Description: Aliquots (1 μL) of test compounds dissolved in DMSO were transferred to 1.5 mL eppendorf tubes followed by addition of recombinant human PTGR2 (44 μL, 200 nM final concentration) in freshly prepared reaction buffer (Tris Buffer, 1 mM EDTA, 50 μM TCEP, 300 μM NADPH). The resulting mixture was vortexed and then incubated at 37° C. for 20 min. Next, a 5 μL solution of 15-keto-PGE2 substrate (20 μM final concentration) in reaction buffer was added and the reaction was allowed to proceed for 30 min at 37° C. Reactions were quenched by the addition of 0.5% AcOH in ethyl acetate (800 μL), water (300 μL) and 100 μL of internal standard PGE2-d4 (30 pmol/sample) dissolved in 1:1 methanol/water. Phases were separated by centrifugation and the organic layer was collected and dried under a stream of N2, then stored at −80° C. until analysis. Directly prior to analysis, samples were reconstituted in 100 μL of MeCN:H2O (1:1, v/v) and analyzed by LC/MS/MS. All conditions were performed in triplicate and repeated at least three independent times.
The following MS parameters were used to measure the indicated metabolites by MRM (precursor ion, product ion, collision energy, polarity): PGE2-d4 (355, 275, 18), 13,14-dihydro-15-keto-PGE2 (351, 333, 18) and 15-keto-PGE2 (349, 161, 20). 15-keto-PGE2 and 13,14-dihydro-15-keto-PGE2 levels were quantified by determining peak areas in relation to internal standard PGE2-d4. Non-deuterated 15-keto-PGE2 and 13,14-dihydro-15-keto-PGE2 standards were used to confirm retention time and fragmentation.
All data fitting and statistical analysis performed using GraphPad Prism version 6.00 for Windows, GraphPad Software, La Jolla Calif. USA, www.graphpad.com. Statistical values including the exact n and statistical significance are also reported. Probe binding blockade and PTGR2 inhibition curves are plotted as mean±SD (n=3 or 4 per group) for a representative biological replicate using a variable slope (four parameter) non-linear fit. Gene expression data are presented as mean±SD (n=3 per group). HSC5 metabolite data are shown as mean±SD (n=3 per group). Statistical significance was defined as P<0.05 and determined by 2-tailed Student t tests, or two-way ANOVA with Bonferroni's post-tests.

PTGR2 [2] = target: T1, PTGR2; assay: Gel-based competitor blockade of FFF 8 labeling of recombinantly expressed FLAG-tagged PTGR2 in HEK293T cells; type: binding
Description: (§1) For gel-based experiments, cells were grown in 6-well plates to ˜90% confluence at the time of treatment. Cells were carefully washed with Dulbecco's phosphate buffered saline (DPBS) and replenished with fresh serum-free media containing indicated FFF probe, and, if applicable, competitors or DMSO vehicle (1 mL). Following incubation at 37° C. for 30 min, cells were directly exposed to 365 nm light for 10 min. For no UV experiments, cells were incubated at 4° C. for 10 min under ambient light. For MS-based experiments, cell labeling was performed in a similar manner as described above. Modifications to this protocol included using isotopically ‘light’ and ‘heavy’ SILAC cells that were grown to near complete confluence prior to treatment in 10 cm plates. […]
(§2) Cells pellets were lysed in cold DPBS (100-500 µL) using a Branson Sonifier probe sonicator (10 pulses, 30% duty cycle, output setting=4). […] Protein concentration was determined using the DC Protein Assay (Bio-Rad) and absorbance read using a Tecan, Infinite F500 plate reader following manufacturer's instructions. […]
(§3) Proteomes from treated cells were diluted to 1 mg/mL. […] Proteins (25 µg total protein loaded per gel lane) were resolved using SDS-PAGE (10% acrylamide) and visualized by in-gel fluorescence on a Hitachi FMBIO-II or a Bio-Rad ChemiDoc™ MP flatbed fluorescence scanner. […]

PTGR2 [3] = target: T1, PTGR2; assay: PPARγ luciferase reporter assay in PTGR2-transfected HEK293T cells (15-keto-PGE2-dependent); type: cell-based; conditions: cells recombinantly expressing PTGR2
Description: (§4) HEK293T cells were transiently co-transfected using Polyethylenimine (Sigma) with a UAS-Luciferase reporter and a vector expressing the heterologous GAL4 DNA binding domain (DBD) or a GAL4 DNA binding domain::PPARγ ligand binding domain (LBD) chimeric protein, and full-length PTGR2. 24 hr after transfection, cells were treated either with vehicle (DMSO), 15k-PGE2 (20 μM), or fragment compounds. Rosiglitazone (2 μM), a synthetic PPARγ ligand, was used as control. 16 hr after incubation, cells were lysed in Cell Culture Lysis Reagent (Promega) and luciferase activity measured using the Luciferase Assay System (Promega).

PPARγ = target: T2, PPARγ (Homo sapiens, UniProt P37231); assay: GAL4-PPARγ luciferase reporter assay with empty control vector in HEK293T cells; type: cell-based; conditions: GAL4-PPARγ luciferase reporter and empty control vector
T2 construct: expressed in transfected cells; host or cells: HEK293T
T2 sequence (P37231 238-503 limits assumed): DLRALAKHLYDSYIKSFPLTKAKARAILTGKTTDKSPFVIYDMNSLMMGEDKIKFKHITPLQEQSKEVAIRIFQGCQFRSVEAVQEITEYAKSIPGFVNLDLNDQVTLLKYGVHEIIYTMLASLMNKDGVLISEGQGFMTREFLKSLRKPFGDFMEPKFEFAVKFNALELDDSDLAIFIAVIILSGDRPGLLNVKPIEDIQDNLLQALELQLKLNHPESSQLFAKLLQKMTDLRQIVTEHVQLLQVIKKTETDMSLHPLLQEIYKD
Description: as §4

PTGR2 [4] = target: T1, PTGR2; conditions: only reported inhibitor of PTGR2; read-out: in vitro IC50 (PTGR2); cited from earlier work
[5] = system: proteins in HEK293T cells; assay: Gel-based profiling of FFF probe-protein labeling in cells; type: binding, human; conditions: 20 μM, 30 min, UV
Description: as §1, §2, §3

T1 sequence (Q8N8N7 whole entry): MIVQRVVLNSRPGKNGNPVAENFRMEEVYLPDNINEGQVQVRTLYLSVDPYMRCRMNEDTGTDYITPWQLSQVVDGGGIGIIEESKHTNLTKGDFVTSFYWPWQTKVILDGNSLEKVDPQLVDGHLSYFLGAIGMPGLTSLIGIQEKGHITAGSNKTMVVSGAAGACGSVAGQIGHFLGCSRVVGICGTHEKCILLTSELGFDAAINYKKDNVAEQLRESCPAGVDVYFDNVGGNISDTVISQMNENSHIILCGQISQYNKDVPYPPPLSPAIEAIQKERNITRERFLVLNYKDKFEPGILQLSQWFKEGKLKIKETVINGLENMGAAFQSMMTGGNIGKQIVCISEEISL

COc1ccccc1C1CCN(S(=O)(=O)Cc2ccccc2)CC1 [Compound 23, 1-(Benzylsulfonyl)-4-(2-methoxyphenyl)piperidine]
effect on 15-keto-PGE2 reductase (catalytic) activity of recombinant PTGR2 (PTGR2 [1]): did not affect
competitor blockade of FFF 8 labeling of recombinant PTGR2 (gel) (PTGR2 [2]): did not affect
15-keto-PGE2-dependent PPARγ transcriptional activity (PTGR2 [3]): no effect
direct modulation of PPARγ transcriptional activity (PPARγ): Neither 22 nor 23 directly modulated

COc1ccc2c(c1)c(CC(=O)O)c(C)n2C(=O)c1ccc(Cl)cc1 [indomethacin]
IC50 (PTGR2 [4]): ~200 µM

C#CCCC1(CCC(=O)NC)N=N1 [probe 1, 3-(3-(But-3-yn-1-yl)-3H-diazirin-3-yl)-N-methylpropanamide]
protein labeling in HEK293T cells (in-gel fluorescence) [5]: much less protein labeling
